# In USRE33897E, “Synthetic polypeptides and antibodies related to Epstein-Barr virus nuclear antigen” (Scripps Clinic and Research Foundation, priority 1989, dated 1992):
# Residues, ends and D or L forms follow the SMILES beside them.
# How the values were obtained:
# anti-EBNA antibodies = assay: ELISA with polypeptide as solid phase antigen, detecting anti-polypeptide antibodies in sera; format: binding, human; settings: for Reaction of VCA- sera with polypeptide: panel of 19 VCA- sera; for Reaction of sera of clinically normal VCA+ individuals with polypeptide: two serum dilutions; for Average titer of Progressive Systemic Schlerosis (PSS) patients to polypeptide compared with normals: high and low serum dilutions; for Number of 91 anti-EBNA positive (ACIF) sera positive against polypeptide: sera at 1:20 dilution
# Experimental: A solution containing a substrate for the enzyme label such as hydrogen peroxide for peroxidase and a color-forming dye precursor such as o-phenylenediamine, or p-nitrophenyl phosphate for alkaline phosphatase is thereafter admixed with the solid phase.
# Anti-peptide antibody binding and inhibition studies were carried out by an enzyme-linked immunosorbent assay (ELISA) as described below.
# Briefly, microtiter wells (Costar, #3590, Cambridge, Mass.) were coated with individual polypeptides as antigens by adding 100 microliters (ul) of BBS [10 millimoler (mM) sodium borate (pH 8.3), 150 mM NaCl] containing polypeptide at a concentration of 10 micrograms per milliliter (ug/ml). Contact between the wells and antigen-containing solution was maintained for a predetermined time, typically 15 minutes, and at 20 degrees C., to form an antigen-coated solid phase. The solid and liquid phases were separated and the wells were washed three times with BBS.
# Non-specific binding sites were blocked by admixing 200 microliters of 1% bovine serum albumin (BSA) in each well to form another solid-liquid phase admixture, and maintaining that solid-liquid phase admixture for 30 minutes, at 20 degrees C. The phases were separated and excess, unbound BSA was removed by washinq three times with BBS.
# […] Contact between the diluted sera and the antigen-coated solid phase was maintained for a predetermined time such as 1 hour, and at 20 degrees C., for an immunoreactant to form. The solid and liquid phases were separated, and the solid phase; i.e., antigen-coated, immunoreactant-containing wells, was then washed three times with BBS.
# The antibodies in human sera that immunoreacted with an adsored polypeptide were detected using an indicating means comprising alkaline phosphatase-conjugated goat anti-human Ig antibody (Tago, Burlington, CA). The antibodies in rabbit sera that immunoreacted with an adsorbed polypeptide were detected using an indicating means comprising alkaline phosphatase-conjugated goat anti-rabbit Ig antibody (Kirkegard & Perry Laboratories, Inc., Gaithersburg, Md.). In either instance, 100 microliters of the indicating antibody diluted 1:300 in BBS were added per well to form a further solid-liquid phase composition. This solidliquid phase composition was maintained for a predetermined time, one hour, for the formation of a reaction product between the human antibodies bound to the solid phase and the indicating means, and at 20 degrees C.
# [1] = Circular dichroism spectroscopy of polypeptides in phosphate buffered saline; format: physicochemical; settings: 1 mg/ml
# Experimental: The conformational properties of the polypeptides were investigated to elucidate any secondary structure that might be necessary for polypeptide immunoreaction with human anti-EBNA antibodies. The polypeptides were dissolved at a concentration of 1 mg/ml in phosphate-buffered saline (PBS). Spectra were taken using 1 ml samples in a Cary 61 spectropolarimeter (Cary Instruments, Applied Physics Corp., Monrovia, Calif.) interfaced and automated with a Digital Equipment Corporation 11/02 computer (Digital Equipment Corporation, Maynard, Mass.).
Compound,Reaction of VCA- sera with polypeptide (anti-EBNA antibodies),Reaction of sera of clinically normal VCA+ individuals with polypeptide (anti-EBNA antibodies),Conformation indicated by circular dichroism spectrum [1],Average titer of Progressive Systemic Schlerosis (PSS) patients to polypeptide compared with normals (anti-EBNA antibodies),Number of 91 anti-EBNA positive (ACIF) sera positive against polypeptide (anti-EBNA antibodies),"OD405 × 10^3 obtained with patient antibodies to polypeptide, average ± one standard deviation (anti-EBNA antibodies; VCA- Normals (n = 27), dilution 1:20) [OD405 × 10^3]",Antibodies binding to polypeptide before and after EBV-induced infectious mononucleosis (anti-EBNA antibodies; sera of two subjects),"OD405 × 10^3 obtained with patient antibodies to polypeptide (anti-EBNA antibodies; serum MV post-mononucleosis, dilution 1:20) [OD405 × 10^3]","OD405 × 10^3 obtained with patient antibodies to polypeptide (anti-EBNA antibodies; serum MV pre-mononucleosis, dilution 1:20) [OD405 × 10^3]","OD405 × 10^3 obtained with patient antibodies to polypeptide (anti-EBNA antibodies; serum SB post-mononucleosis, dilution 1:20) [OD405 × 10^3]","OD405 × 10^3 obtained with patient antibodies to polypeptide (anti-EBNA antibodies; serum SB pre-mononucleosis, dilution 1:20) [OD405 × 10^3]","OD405 × 10^3 obtained with patient antibodies to polypeptide (anti-EBNA antibodies; serum VCA + Normal 1, dilution 1:20) [OD405 × 10^3]","OD405 × 10^3 obtained with patient antibodies to polypeptide (anti-EBNA antibodies; serum VCA + Normal 2, dilution 1:20) [OD405 × 10^3]"
"CC[C@H](C)[C@H](N)C(=O)N[C@@H](CCSC)C(=O)N[C@@H](CO)C(=O)N[C@@H](CC(=O)O)C(=O)N[C@@H](CCC(=O)O)C(=O)NCC(=O)N1CCC[C@H]1C(=O)NCC(=O)N[C@H](C(=O)NCC(=O)N[C@@H](CC(N)=O)C(=O)NCC(=O)N[C@@H](CC(C)C)C(=O)NCC(=O)N[C@@H](CCC(=O)O)C(=O)O)[C@@H](C)O [Polypeptide F12, H--Ile--Met--Ser--Asp--Glu--Gly--Pro--Gly--Thr--Gly--Asn--Gly--Leu--Gly--Glu--OH] (H-IMSDEGPGTGNGLGE-OH)",None of the VCA- sera were found to react positively,all of the VCA+ indiviuals were positive,partial assumption of such conformation,–,–,–,–,–,–,–,–,–,–
"C[C@H](NC(=O)CNC(=O)[C@@H]1CCCN1)C(=O)N1CCC[C@H]1C(=O)NCC(=O)NCC(=O)N[C@@H](CO)C(=O)NCC(=O)N[C@@H](CO)C(=O)NCC(=O)N1CCC[C@H]1C(=O)O [Polypeptide F13, H--Pro--Gly--Ala--Pro--Gly--Gly--Ser--Gly--Ser--Gly--Pro--OH] (H-PGAPGGSGSGP-OH)",None of the VCA- sera were found to react positively,all of the VCA+ indiviuals were positive,random conformation,–,–,–,–,–,–,–,–,–,–
"C[C@H](NC(=O)CNC(=O)CNC(=O)CNC(=O)[C@H](C)NC(=O)CNC(=O)[C@H](C)NC(=O)CNC(=O)CNC(=O)[C@H](C)NC(=O)CNC(=O)CNC(=O)[C@H](C)NC(=O)CNC(=O)CN)C(=O)NCC(=O)O [Polypeptide F14, H--Gly--Gly--Ala--Gly--Gly--Ala--Gly--Gly--Ala--Gly--Ala--Gly--Gly--Gly--Ala--Gly--OH] (H-GGAGGAGGAGAGGGAG-OH)",None of the VCA- sera were found to react positively,all of the VCA+ indiviuals were positive,very similar spectra,relatively higher average titer,91,–,–,–,–,–,–,–,–
"C[C@H](NC(=O)CN)C(=O)NCC(=O)NCC(=O)N[C@@H](C)C(=O)NCC(=O)N[C@@H](C)C(=O)NCC(=O)NCC(=O)NCC(=O)N[C@@H](C)C(=O)NCC(=O)NCC(=O)N[C@@H](C)C(=O)NCC(=O)NCC(=O)O [Polypeptide F15, H--Gly--Ala--Gly--Gly--Ala--Gly--Ala--Gly--Gly--Gly--Ala--Gly--Gly--Ala--Gly--Gly--OH] (H-GAGGAGAGGGAGGAGG-OH)",None of the VCA- sera were found to react positively,all of the VCA+ indiviuals were positive,very similar spectra,relatively higher average titer,91,–,–,–,–,–,–,–,–
"C[C@H](NC(=O)CNC(=O)CNC(=O)[C@H](C)NC(=O)CNC(=O)[C@H](C)NC(=O)CNC(=O)CNC(=O)[C@H](C)NC(=O)CNC(=O)[C@H](C)NC(=O)CNC(=O)CNC(=O)[C@H](C)NC(=O)CNC(=O)[C@H](C)NC(=O)CNC(=O)CN)C(=O)NCC(=O)N[C@@H](C)C(=O)NCC(=O)O [Polypeptide F16, H--Gly--Gly--Ala--Gly--Ala--Gly--Gly--Ala--Gly--Ala--Gly--Gly--Ala--Gly--Ala--Gly--Gly--Ala--Gly--Ala--Gly--OH] (H-GGAGAGGAGAGGAGAGGAGAG-OH)",None of the VCA- sera were found to react positively,all of the VCA+ indiviuals were positive,–,relatively higher average titer,91,–,–,–,–,–,–,–,–
"C[C@H](NC(=O)CNC(=O)CNC(=O)[C@H](C)NC(=O)CNC(=O)[C@H](C)NC(=O)CNC(=O)[C@H](C)NC(=O)CNC(=O)[C@@H](NC(=O)CNC(=O)CNC(=O)[C@H](Cc1c[nH]cn1)NC(=O)[C@@H](NC(=O)CNC(=O)[C@@H](N)CCCCN)[C@@H](C)O)[C@@H](C)O)C(=O)NCC(=O)N[C@@H](C)C(=O)NCC(=O)O [Polypeptide P27, H--Lys--Gly--Thr--His--Gly--Gly--Thr--Gly--Ala--Gly--Ala--Gly--Ala--Gly--Gly--Ala--Gly--Ala--Gly--OH] (H-KGTHGGTGAGAGAGGAGAG-OH)",None of the VCA- sera were found to react positively,all of the VCA+ indiviuals were positive,very similar spectra,relatively higher average titer,91,67 ± 23,"absent before infection, but appeared afterward",107,15,33,11,155,516
